Test results from ChEMBL document CHEMBL1932988, “Synthesis, antimicrobial, anticancer evaluation and QSAR studies of 6-methyl-4-[1-(2-substituted-phenylamino-acetyl)-1H-indol-3-yl]-2-oxo/thioxo-1,2,3,4-tetrahydropyrimidine-5-carboxylic acid ethyl esters” (Eur J Med Chem, 2012).
≈ marks a conversion by molar mass, not a printed value.

Experiments:
Staphylococcus aureus [1] = test: Ratio of MIC to MBC for Staphylococcus aureus MTCC 2901; format: functional
Bacillus subtilis [2] = test: Antibacterial activity against Bacillus subtilis MTCC 2063 after 24 hrs by tube dilution method; format: functional
Escherichia coli [3] = test: Antibacterial activity against Escherichia coli MTCC 1652 after 24 hrs by tube dilution method; format: functional
MCF7 = test: cells; details: Homo sapiens, MCF7, 72 h
Description: Cytotoxicity against human MCF7 cells after 72 hrs by MTT assay

Aspergillus niger [4] = test: Ratio of MIC to MFC for Aspergillus niger MTCC 8189; format: functional
HCT-116 = test: cells; details: Homo sapiens, HCT-116, 72 h
Escherichia coli [5] = test: Antibacterial activity against Escherichia coli MTCC 1652 after 24 hrs by tube dilution method hrs followed by subculturing; format: functional
Aspergillus niger [6] = test: Antifungal activity against Aspergillus niger MTCC 8189 after 7 days by tube dilution method hrs followed by subculturing; format: functional
Candida albicans [7] = test: Antifungal activity against Candida albicans MTCC 227 after 48 hrs by tube dilution method; format: functional
Escherichia coli [8] = test: Ratio of MIC to MBC for Escherichia coli MTCC 1652; format: functional
Staphylococcus aureus [9] = test: Antibacterial activity against Staphylococcus aureus MTCC 2901 after 24 hrs by tube dilution method; format: functional
Candida albicans [10] = test: Antifungal activity against Candida albicans MTCC 227 after 48 hrs by tube dilution method hrs followed by subculturing; format: functional
Candida albicans [11] = test: Ratio of MIC to MFC for Candida albicans MTCC 227; format: functional
[12] = Partition coefficient, log P of the compound; format: physicochemical; details: octanol/water
Bacillus subtilis [13] = test: Ratio of MIC to MBC for Bacillus subtilis MTCC 2063; format: functional
Staphylococcus aureus [14] = test: Antibacterial activity against Staphylococcus aureus MTCC 2901 after 24 hrs followed by subculturing; format: functional
Aspergillus niger [15] = test: Antifungal activity against Aspergillus niger MTCC 8189 after 7 days by tube dilution method; format: functional
Bacillus subtilis [16] = test: Antibacterial activity against Bacillus subtilis MTCC 2063 after 24 hrs by tube dilution method hrs followed by subculturing; format: functional

Row | Compound | Ratio (Staphylococcus aureus [1]) | -logMIC (Bacillus subtilis [2]) | -logMIC (Escherichia coli [3]) | IC50 (MCF7) | Ratio (Aspergillus niger [4]) | IC50 (HCT-116) | MBC (Escherichia coli [5]) | MFC (Aspergillus niger [6]) | -logMIC (Candida albicans [7]) | Ratio (Escherichia coli [8]) | -logMIC (Staphylococcus aureus [9]) | MFC (Candida albicans [10]) | Ratio (Candida albicans [11]) | logP [12] | Ratio (Bacillus subtilis [13]) | MBC (Staphylococcus aureus [14]) | -logMIC (Aspergillus niger [15]) | MBC (Bacillus subtilis [16])
1 | CCOC(=O)C1=C(C)NC(=S)NC1c1cn(C(=O)CNc2ccc([N+](=O)[O-])cc2C)c2ccccc12 (configuration not stated) | 3 | 1.61 | 1.61 | 48 µg/mL (≈ 94.6 µM) | 3 | > 1000 µg/mL | >0.1 uM/ml | >0.1 uM/ml | 1.61 | 3 | 1.61 | >0.1 uM/ml | 3 | 3.34 | 3 | >0.1 uM/ml | 1.61 | >0.1 uM/ml
2 | CCOC(=O)C1=C(C)NC(=O)NC1c1cn(C(=O)CNc2ccc([N+](=O)[O-])cc2C)c2ccccc12 (configuration not stated) | 3 | 1.29 | 1.59 | 50 µg/mL (≈ 102 µM) | 3 | 600 µg/mL (≈ 1220 µM) | >0.1 uM/ml | >0.1 uM/ml | 1.59 | 3 | 1.59 | >0.1 uM/ml | 3 | 1.94 | 3 | >0.1 uM/ml | 1.59 | >0.1 uM/ml
3 | CCOC(=O)C1=C(C)NC(=O)NC1c1cn(C(=O)CNc2ccccc2N)c2ccccc12 (configuration not stated) | 3 | 1.55 | 1.85 | 2.5 µg/mL (≈ 5.59 µM) | 3 | 300 µg/mL (≈ 670 µM) | 0.11 uM/ml | >0.11 uM/ml | 1.55 | 3 | 1.55 | >0.11 uM/ml | 3 | 0.74 | 3 | >0.11 uM/ml | 1.55 | >0.11 uM/ml
4 | CCOC(=O)C1=C(C)NC(=S)NC1c1cn(C(=O)CNc2ccccc2)c2ccccc12 (configuration not stated) | 3 | 1.25 | 1.55 | 52 µg/mL (≈ 116 µM) | 3 | 450 µg/mL (≈ 1000 µM) | >0.11 uM/ml | >0.11 uM/ml | 1.55 | 3 | 1.55 | >0.11 uM/ml | 3 | 2.92 | 3 | >0.11 uM/ml | 1.55 | >0.11 uM/ml
